The source of these data is publication PMC8698377, “In Vitro Hepatic Assessment of Cineole and Its Derivatives in Common Brushtail Possums (Trichosurus vulpecula) and Rodents” (Biology, 2021).

In one data set the test system is UGT. As to the kind of experiment: p-nitrophenol glucuronidation, mouse hepatic microsomes. It is filed as in vitro ADME. Conditions: 12.5 µM. Here is the method:
(§1) Microsomal preparation was as previously outlined. Individual livers were placed in beakers containing 1.15% KCl. All the procedures were carried out at 0–4 °C. The liver samples were minced and homogenised in buffer A (0.1 M Tris, 0.1 M potassium chloride, 1 mM EDTA, and 20 μM butylated hydroxytoluene, at pH = 7.4) using the Teflon-glass homogeniser (5–6 vertical passes). The samples were centrifuged for 20 min at 10,000× g. The supernatant was then transferred into another set of centrifuge tubes and spun for 60 min at 100,000× g. The pellet was resuspended in Buffer B (0.1 M potassium pyrophosphate, 1 mM EDTA, and 20 μM butylated hydroxytoluene, at pH = 7.4), homogenised and recentrifuged for 60 min at 100,000× g. Finally, the pellet was homogenised in 1–2 mL of Buffer C (10 mM Tris-HCl, 1 mM EDTA, and 4% glycerol (v/v)) and stored at […] until used. The protein concentration of the microsomes was determined using the Bicinchoninic acid (BCA) method.
(§2) The rate of p-nitrophenol glucuronidation was determined as previously reported. In short, the incubation mixture (500 µL in total) contained; 100 µL of 1 mg/mL microsomes, 50 µL of 1 M Tris-HCl (pH = 7.4), 20 µL of 0.25% (v/v) Triton-X 100, 50 µL of 50 mM MgCl2, 130 µL of double distilled water, 50 µL of 5 mM p-nitrophenol, 50 µL of the test compound, and 50 µL of uridine 5′-diphosphoglucuronic acid trisodium salt (UDPGA). The blank tubes had all components except UDPGA and microsomes; instead, 150 µL of 0.1 M phosphate buffer was added to equal the volume as the reaction mixture. The reaction mixture and the blank were incubated at 37 °C for 2 min. Then, 50 µL of 30 mM UDPGA was added to initiate the reaction which proceeded at 37 °C for 30 min (optimised incubation time). The reaction was stopped using 1 mL of 5% trichloroacetic acid (TCA). The tubes were centrifuged at 1800 g for 10 min and then 1 mL of supernatant was added to 250 µL of 2 M sodium hydroxide (NaOH). The absorbance was read at 405 nm. The sample reading was subtracted from the blank absorbance and divided by the extinction coefficient of p-nitrophenol ([…]) and the light path of the spectrophotometer (1 cm). The glucuronidation activities are expressed in µmol/mg/min and are the mean ± SEM of 3 independent experiments conducted in duplicate.
On to `CC1(O)CCC(C(C)(C)O)CC1` (stereo in doubt) [Trans-terpin, trans-terpin], for which the p-nitrophenol glucuronidation activity was determined as 2.44 ± 0.06 µmol/mg/min and the “p-nitrophenol glucuronidation, % of Control” value was determined as 101.67 ± 0.74%.
For `CC1(C)CCCCC1` [1,1-dimethylcyclohexane] the same measures were 2.48 ± 0.13 µmol/mg/min and 105.97 ± 2.23%.

The data set is the same for the next values; noted with them: 25 µM.
Consider `CC1(O)CCC(C(C)(C)O)CC1` (stereo in doubt) [Trans-terpin, trans-terpin], for which the p-nitrophenol glucuronidation activity was 2.33 ± 0.07 µmol/mg/min and the “p-nitrophenol glucuronidation, % of Control” value is given as 97.15 ± 1.80%.
The corresponding values for `CC1(C)CCCCC1` [1,1-dimethylcyclohexane] are 2.19 ± 0.09 µmol/mg/min and 93.67 ± 1.67%.

A further data set deals with UGT. As to the kind of experiment: p-nitrophenol glucuronidation, possum hepatic microsomes. The data set is classed as in vitro ADME, possum (Trichosurus vulpecula). The settings on record: 12.5 µM. The protocol:
as §1, §2
For `CC1(O)CCC(C(C)(C)O)CC1` (stereo in doubt) [Trans-terpin, trans-terpin], the p-nitrophenol glucuronidation activity turned out to be 3.90 ± 0.34 µmol/mg/min and the “p-nitrophenol glucuronidation, % of Control” value worked out at 99.53 ± 0.84%.
Take `CC1(C)CCCCC1` [1,1-dimethylcyclohexane]: the p-nitrophenol glucuronidation activity came to 4.08 ± 0.18 µmol/mg/min and the “p-nitrophenol glucuronidation, % of Control” value worked out at 100.68 ± 0.60%.

The data set is the same for the next values; noted with them: 25 µM.
On to `CC1(O)CCC(C(C)(C)O)CC1` (stereo in doubt) [Trans-terpin, trans-terpin], for which the p-nitrophenol glucuronidation activity was 3.91 ± 0.34 µmol/mg/min and the “p-nitrophenol glucuronidation, % of Control” value turned out to be 99.77 ± 0.60%.
`CC1(C)CCCCC1` [1,1-dimethylcyclohexane]: the p-nitrophenol glucuronidation activity is listed as 4.03 ± 0.23 µmol/mg/min and the “p-nitrophenol glucuronidation, % of Control” value was 99.32 ± 0.90%.

Another data set concerns UGT. Briefly: p-nitrophenol glucuronidation, rat hepatic microsomes. It is filed as in vitro ADME. The settings on record: 12.5 µM. The protocol:
as §1, §2
In the case of `CC1(O)CCC(C(C)(C)O)CC1` (stereo in doubt) [Trans-terpin, trans-terpin], the p-nitrophenol glucuronidation activity turned out to be 2.87 ± 0.22 µmol/mg/min and the “p-nitrophenol glucuronidation, % of Control” value came out at 104.14 ± 9.44%.
For `CC1(C)CCCCC1` [1,1-dimethylcyclohexane] the same measures were 2.59 ± 0.08 µmol/mg/min and 100.53 ± 2.39%.

Still in this data set, the particulars now being: 25 µM.
`CC1(O)CCC(C(C)(C)O)CC1` (stereo in doubt) [Trans-terpin, trans-terpin]: the p-nitrophenol glucuronidation activity is reported as 2.50 ± 0.10 µmol/mg/min and the “p-nitrophenol glucuronidation, % of Control” value amounted to 90.51 ± 3.63%.
The corresponding values for `CC1(C)CCCCC1` [1,1-dimethylcyclohexane] are 2.58 ± 0.05 µmol/mg/min and 100.29 ± 3.55%.

The next data set concerns CYP3A. Briefly: CYP3A catalytic activity (erythromycin-N-demethylation), mouse hepatic microsomes. It is filed as in vitro ADME. Conditions: 12.5 µM. Here is the method: as §1
(§3) CYP3A catalytic activity was determined using the erythromycin-N-demethylation activity assay as described previously. The reaction mixture (final volume of 1 mL and final protein concentration of 1 mg) contained 500 µL of microsomes in 0.1 M phosphate buffer (pH = 7.4), 400 µL of erythromycin buffer (0.45 mM), and 50 µL of the test compound was pre-warmed at 37 °C for 2 min. The reaction was initiated with 50 µL of 2.5 mM […] and incubated at 37 °C for 30 min (optimised incubation time). The reaction was stopped with the addition of 330 µL of 15% zinc sulphate. Tubes were vortexed and left for 5 min (at room temperature) and then 330 µL of saturated barium hydroxide was added. Tubes were further vortexed and left for 5 min (at room temperature). Tubes were then centrifuged at 1800 g for 10 min. To 830 µL of the supernatant, 330 µL of Nash reagent (30% (w/v) ammonium acetate, 0.4% (v/v) acetyl acetone) was added and further incubated at 60 °C for 30 min. The blank tube contained 330 µL of Nash reagent and 830 µL of Milli-Q-water. The tubes were centrifuged again at 1800× g for 10 min and the absorbance was read at 415 nm. Results presented are the mean ± SEM of 3 independent experiments conducted in duplicate.
`CC1(O)CCC(C(C)(C)O)CC1` (stereo in doubt) [Trans-terpin, trans-terpin] showed a CYP3A catalytic activity of 0.71 ± 0.03 nmol/mg/min.
The same measure, in the same setting: then `CC1(C)CCCCC1` [1,1-dimethylcyclohexane], with 0.73 ± 0.03 nmol/mg/min.

The data set is the same for the next values; noted with them: 25 µM.
`CC1(O)CCC(C(C)(C)O)CC1` (stereo in doubt) [Trans-terpin, trans-terpin]: the CYP3A catalytic activity was determined as 0.70 ± 0.03 nmol/mg/min.
Still for that read-out and setting: the figure for `CC1(C)CCCCC1` [1,1-dimethylcyclohexane] is 0.79 ± 0.04 nmol/mg/min.

The same data set, now with this note: liver microsomes, pH 7.4, probe erythromycin, 12.5 µM, read-out: CYP3A catalytic activity, % of Control.
Regarding `CC1(O)CCC(C(C)(C)O)CC1` (stereo in doubt) [Trans-terpin, trans-terpin], the activity at 30 min, 12.5 µM turned out to be 101 ± 2.7%.
With `CC1(C)CCCCC1` [1,1-dimethylcyclohexane], the activity at 30 min, 12.5 µM turned out to be 98.93 ± 0.94%.

Still in this data set, the particulars now being: liver microsomes, pH 7.4, probe erythromycin, 25 µM, read-out: CYP3A catalytic activity, % of Control.
For `CC1(O)CCC(C(C)(C)O)CC1` (stereo in doubt) [Trans-terpin, trans-terpin], the activity at 30 min, 25 µM turned out to be 99.64 ± 0.93%.
Still for that read-out and setting: then `CC1(C)CCCCC1` [1,1-dimethylcyclohexane], with 107 ± 1.13%.

A further data set relates to CYP3A. As to the kind of experiment: CYP3A catalytic activity (erythromycin-N-demethylation), possum hepatic microsomes. It is filed as in vitro ADME, possum (Trichosurus vulpecula). Conditions: 12.5 µM. Here is the method: as §1, §3
`CC1(O)CCC(C(C)(C)O)CC1` (stereo in doubt) [Trans-terpin, trans-terpin]: the CYP3A catalytic activity came out at 0.41 ± 0.02 nmol/mg/min.
As for `CC1(C)CCCCC1` [1,1-dimethylcyclohexane], the CYP3A catalytic activity came out at 0.38 ± 0.01 nmol/mg/min.

The same data set, now with this note: 25 µM.
`CC1(O)CCC(C(C)(C)O)CC1` (stereo in doubt) [Trans-terpin, trans-terpin] gave a CYP3A catalytic activity of 0.40 ± 0.03 nmol/mg/min.
The same measure, in the same setting: then `CC1(C)CCCCC1` [1,1-dimethylcyclohexane], with 0.40 ± 0.02 nmol/mg/min.

Staying with this data set, now noted: possum (Trichosurus vulpecula), liver microsomes, pH 7.4, probe erythromycin, 12.5 µM, read-out: CYP3A catalytic activity, % of Control.
On to `CC1(O)CCC(C(C)(C)O)CC1` (stereo in doubt) [Trans-terpin, trans-terpin], for which the activity at 30 min, 12.5 µM was determined as 106 ± 1.42%.
On to `CC1(C)CCCCC1` [1,1-dimethylcyclohexane], for which the activity at 30 min, 12.5 µM stood at 98 ± 1.28%.

Still in this data set, the particulars now being: possum (Trichosurus vulpecula), liver microsomes, pH 7.4, probe erythromycin, 25 µM, read-out: CYP3A catalytic activity, % of Control.
In the case of `CC1(O)CCC(C(C)(C)O)CC1` (stereo in doubt) [Trans-terpin, trans-terpin], the activity at 30 min, 25 µM was found to be 103 ± 6.11%.
Take `CC1(C)CCCCC1` [1,1-dimethylcyclohexane]: the activity at 30 min, 25 µM was 101.8 ± 0.61%.

The test system of the next data set is CYP3A. Briefly: CYP3A catalytic activity (erythromycin-N-demethylation), rat hepatic microsomes. It is filed as in vitro ADME. Conditions: 12.5 µM. Here is the method: as §1, §3
In turn, `CC1(O)CCC(C(C)(C)O)CC1` (stereo in doubt) [Trans-terpin, trans-terpin] came in with a CYP3A catalytic activity of 0.59 ± 0.04 nmol/mg/min.
`CC1(C)CCCCC1` [1,1-dimethylcyclohexane] had a CYP3A catalytic activity of 0.61 ± 0.07 nmol/mg/min.

The data set is the same for the next values; noted with them: 25 µM.
As to `CC1(O)CCC(C(C)(C)O)CC1` (stereo in doubt) [Trans-terpin, trans-terpin], the CYP3A catalytic activity was determined as 0.60 ± 0.06 nmol/mg/min.
Compound `CC1(C)CCCCC1` [1,1-dimethylcyclohexane] gave a CYP3A catalytic activity of 0.61 ± 0.10 nmol/mg/min.

The data set is the same for the next values; noted with them: liver microsomes, pH 7.4, probe erythromycin, 12.5 µM, read-out: CYP3A catalytic activity, % of Control.
As for `CC1(O)CCC(C(C)(C)O)CC1` (stereo in doubt) [Trans-terpin, trans-terpin], the activity at 30 min, 12.5 µM came to 98.3 ± 3.1%.
Still for that read-out and setting: the figure for `CC1(C)CCCCC1` [1,1-dimethylcyclohexane] is 103 ± 7.68%.

The data set is the same for the next values; noted with them: liver microsomes, pH 7.4, probe erythromycin, 25 µM, read-out: CYP3A catalytic activity, % of Control.
For the compound `CC1(O)CCC(C(C)(C)O)CC1` (stereo in doubt) [Trans-terpin, trans-terpin], the activity at 30 min, 25 µM worked out at 99.3 ± 1%.
Still for that read-out and setting: the figure for `CC1(C)CCCCC1` [1,1-dimethylcyclohexane] is 100 ± 1.66%.
